The series in a line: Heating of Lamotrigine Solvates/Hydrates (annealing; crystal form afterwards). The series is classed as physicochemical. Conditions: resulting crystal form. How it is done:
All X-ray powder diffraction patterns were obtained by methods known in the art. One method employs the use of a Philips X-Ray powder diffractometer, Goniometer model 1050/70 at a scanning speed of 20 per minute. Another method employs the use of a Scintag X'TRA X-ray powder diffractometer, equipped with a solid state Si(Li) detector thermoelectrically cooled, at a scanning speed of 30 min.^−1 Scanning range […] two-theta. Copper radiation of 1.5418 Å was used. According to one embodiment, the present invention provides a process for preparing lamotrigine form A including heating lamotrigine solvates at temperatures elevated enough to remove all the solvent from the crystal, usually above 100° C. for a period of about 2 hours, preferably above 110° C. for a period of about 1 hour, more preferably at about 150° C. for a period of about ½ hour. [table]

Turning to `Nc1nnc(-c2cccc(Cl)c2Cl)c(N)n1` [J ispropanolate, 6-(2,3-Dichlorophenyl)-1,2,4-triazine-3,5-diamine], under “solid heated at 80° C. for 60 min”, the “Crystal form after annealing at 80° C. 60 min” value was “Amorphous”.
Take `Nc1nnc(-c2cccc(Cl)c2Cl)c(N)n1` [C DMF monosolvate, 6-(2,3-Dichlorophenyl)-1,2,4-triazine-3,5-diamine]: where the note is “solid heated at 110° C. for 45 min”, the “Crystal form after annealing at 110° C. 45 min” value is recorded as “A + P”.

The values are drawn from patent US6861426B2, “Crystal forms of lamotrigine and processes for their preparations” (Teva Pharmaceutical Industries Ltd., priority 2001, dated 2005).
